Test results as given in patent publication US20220409586A1, “TREATMENT AND PREVENTION OF NEUROINFLAMMATION OR AN INFLAMMATORY BRAIN DISORDER” (Inflazome Limited, priority 2019, published 2022).

Assay: Study A: blood-brain barrier penetration, MetaQuant microdialysis of left and right striatum after oral administration
Type: in vivo, mouse (C57Bl/6)
Details: for average peak levels in left and right striatal dialysate: freely-moving adult male C57Bl/6 mice, corrected for dilution, not for recovery; for time of average peak levels in striatal dialysate after compound administration: mice, left and right striatum
Method: The present study was designed to determine the free concentration of the compound of formula (I) in the left and right striatum of freely-moving adult male mice after oral administration.
Adult male C57Bl/6 mice (22-28 g; Envigo, the Netherlands) were used for the experiments. Following arrival, animals were housed in groups of 5 in polypropylene cages (40×50×20 cm) with wire mesh top in a temperature (22±2° C.) and humidity (55±15%) controlled environment on a 12 hour light cycle (07.00-19.00). Following surgery, animals were housed individually (cages 30×30×40 cm). Standard diet (SDS Diets, RM1 PL) and domestic quality mains water were available ad libitum.
Mice were anesthetized using isoflurane (2% and 500 mL/min O2). Before surgery, Finadyne (1 mg/kg, s.c.) was administered for analgesia during surgery and the post-surgical recovery period. A mixture of bupivacaine and epinephrine was used for local analgesia of the incision site.
The animals were placed in a stereotaxic frame (Kopf instruments, USA). MetaQuant microdialysis probes with a 3 mm exposed polyacrylonitrile membrane (MQ-PAN 3/3) were implanted bilaterally into the left and right striatum (coordinates for the tip of the probe: AP=+0.8 mm (to bregma), ML=+/−1.7 mm (to midline), DV=−4.0 mm (to dura) with an angle of 0° and the incisor bar set at 0.0 mm. All coordinates were based on “The mouse brain in stereotaxic coordinates” by Paxinos and Franklin (2008). The probes were attached to the skull with a stainless-steel screw and dental cement.
The monosodium salt of the compound of formula (I) was formulated in sterilized tap water at concentrations (with respect to the non-salt form) of 0.2 and 4 mg/mL for oral dosing at 5 mL/kg; 1 mg/kg and 20 mg/kg, respectively.
The MetaQuant microdialysis probes were connected with flexible PEEK tubing (Western Analytical Products Inc. USA; PK005-020) to a microperfusion pump (Harvard) and perfused with a slow flow of artificial CSF (perfusate), containing 147 mM NaCl, 3.0 mM KCl, 1.2 mM CaCl2, and 1.2 mM MgCl2, at a flow rate of 0.12 μL/min and a carrier flow of UP+0.02 M FA+0.04% ascorbic acid at 0.8 μL/min. After a minimum of two hours of prestabilisation, microdialysis samples were collected in 60 minute intervals. Following collection of two baseline samples, the compound of formula (I) (1 or 20 mg/kg in sterilised tap water) was administered orally at t=0 minutes. […]
Microdialysate samples from MetaQuant probes contained a nominal volume of 55.2 μL dialysate. Levels of the compound of formula (I) in MetaQuant microdialysate samples were quantified by LC-MS/MS. […]
Suitable in-run calibration curves were fitted using weighted (1/x) regression and the sample concentrations were determined using these calibration curves. […]

CC(C)n1ccc(S(=O)(=O)NC(=O)Nc2c3c(cc4c2CCC4)CCC3)n1 [compound of formula (I)]
average peak levels in left and right striatal dialysate (1 mg/kg oral, at 5 hours after administration): 12 to 13 nM | time of average peak levels in striatal dialysate after compound administration (1 mg/kg oral): 5 h | average peak levels in left and right striatal dialysate (20 mg/kg oral, at 6 hours after administration): 201 to 243 nM | time of average peak levels in striatal dialysate after compound administration (20 mg/kg oral): 6 h
